Reference: the METLIN SMRT retention time set (Domingo-Almenara et al. 2019)

Test: gradient 5% acetonitrile 3 min, to 50% in 2 min, to 85% in 15 min, held 3 min, 100 µL/min
Conditions: column: Zorbax Extend-C18 2.1 x 50 mm; eluents: water / acetonitrile, 0.1% formic acid
In short: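 Over 3 months, pure standards in mixtures of ~100 molecules were run by HPLC coupled to a quadrupole time-of-flight mass spectrometer in positive and negative ionization mode. The column was a Zorbax Extend-C18 (2.1 × 50 mm, 1.8 μm) at 100 μL/min, eluted with water and acetonitrile each holding 0.1% formic acid, with 40 μL dead and 900 μL dwell volumes. Retention time was determined from adduct peaks chosen by software and checked manually.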

| RP-LC retention time [s] | Compound |
| --- | --- |
| 610 | CC(C)n1c(CN2CCCC2)nc2cc(NC(=O)c3ccco3)ccc21 |
| 835 | CCN1c2ccc(F)cc2C(=O)NC12CCN(C(=O)c1ccccc1C)CC2 |
| 646 | CCC(=O)N1CCc2ccccc2C1C(=O)NCCCN1CCCC1=O (stereo unspecified) |
| 635 | O=C(CCCn1c(=O)c2cccn2c2ccc(F)cc21)N1CCN(c2ccccn2)CC1 |
| 1270 | Cc1nn(-c2nc(-c3ccccc3)cs2)c(C)c1CC(=O)Nc1cccc(C(F)(F)F)c1 |
| 834 | CC(C)CCNC(=O)N1CCCC(C)(C(=O)NCc2ccccc2)C1 (stereo unspecified) |
| 830 | Cc1ccc(CNC(=O)c2ccc3c(=O)n(-c4ccccc4)c(N4CCCC4)nc3c2)o1 |
| 925 | CC(CCc1ccccc1)NC(=O)C(=O)NC1CCCC1 (stereo unspecified) |
| 1030 | CC(C)Cn1c(=O)c2cc(C(=O)NCc3cc(F)ccc3F)nn2c2ccccc21 |
| 597 | O=C(Cn1nnc2ccccc2c1=O)Nc1nc2ccccc2[nH]1 |
| 625 | CCOC(=O)CNC(=O)CSc1ccc2nnc(-c3cccc(F)c3)n2n1 |
| 567 | CNC(=O)c1cc(N2CCCC2)nc2c(C)cccc12 |
| 1230 | CCN(C(=O)c1ccccc1)c1nc(-c2ccccc2)cs1 |
| 640 | CCC(C(=O)NCCN1CCOCC1)n1nc(C)c2nn(-c3ccccc3)c(C)c2c1=O (stereo unspecified) |
| 839 | O=C1CCCN1c1ccc(Cn2nc3c(-c4nc(-c5ccccc5)no4)cccn3c2=O)cc1 |
| 769 | Cc1cc2nn(CC(=O)Nc3ccccc3)c(=O)n2c(-c2ccccc2)n1 |
| 620 | CCn1c(=O)c(C(=O)NCCN2CCc3ccccc3C2)nc2cccnc21 |
| 618 | O=C(NCC1CCCO1)C1CCN(c2ncnc3c2oc2ccccc23)CC1 (stereo unspecified) |

| RP-LC retention time [s] | Compound |
| --- | --- |
| 728 | CCNC(=O)N1CC(c2nc(-c3ccccc3)no2)C2(CCOCC2)C1 (stereo unspecified) |
| 780 | Cc1ccc(-n2nc(N3CCN(C(=O)Nc4ccccc4)CC3)ccc2=O)cc1 |
| 830 | CCOc1ccc2nc(NC(=O)c3ccc(N4CCCC4)nn3)sc2c1 |
| 795 | Cc1nnc(N2CCCC(C(=O)N(C)Cc3ccccc3)C2)c2nn(-c3ccc(Cl)cc3)c(C)c12 (stereo unspecified) |
| 756 | CCOC(=O)c1ccccc1NC(=O)N(Cc1cccs1)C1CCN(CC)CC1 |
| 1030 | Cc1ccc(C(=O)Nc2cccn3nc(C(C)C)nc23)cc1C |
| 848 | Cc1nn2c(CNS(=O)(=O)c3cc(F)ccc3F)c(-c3ccccc3)nc2s1 |
| 611 | CC1CCCCN1CCCNC(=O)Cn1c(=O)c2cccn2c2ccc(F)cc21 (stereo unspecified) |
| 823 | Cc1ccc2c(c1)N(C(=O)C1CCN(S(=O)(=O)c3cccnc3)CC1)CCO2 |
| 746 | CCn1ccc(C(=O)NC2CCN(C3=NS(=O)(=O)C(c4ccccc4)=C3C)CC2)n1 |
| 772 | CCn1cc(C)c(C(=O)O)c1CC(=O)N(C)Cc1ccccc1 |
| 690 | Cc1oc(-c2cccc(Cl)c2)nc1CN1CCN(C(=O)NC2CCCC2)CC1 |
| 825 | Cc1ccc(CN2C(=O)NC3(CCN(C(=O)c4sccc4C)CC3)C2=O)cc1 |
| 883 | Cc1ccc(C)c(-c2cc3c4nn(CC(=O)NCc5ccco5)c(=O)n4ccn3n2)c1 |
| 586 | CC(NC(=O)c1ccc(-c2ccnc(N3CCCC3)n2)cc1)c1cccnc1 (stereo unspecified) |
| 590 | COC(=O)c1cc(S(=O)(=O)N2CCCC2C(=O)NCc2ccccn2)cn1C (stereo unspecified) |
| 1090 | CCOc1ccc(-c2noc(N3CCC(C(=O)Nc4cc(Cl)ccc4OC)CC3)n2)cc1OC |

The next lines start with the molecule.

| Compound | RP-LC retention time [s] |
| --- | --- |
| CCn1nnc(NCc2ccc(-c3cccc(Cl)c3)o2)n1 | 1010 |
| CCCN1C(=O)c2cc(S(=O)(=O)N3CCCCC3CC)ccc2Oc2cccnc21 (stereo unspecified) | 1260 |
| CCCCC(=O)N(CCC)CCC | 965 |
| Cn1cc(CC(=O)NCc2ccc3c(c2)OCO3)c2cccnc21 | 648 |
| O=S(=O)(NC1CCCCCCC1)c1ccc2c(c1)-c1oncc1CO2 | 1030 |
| CCc1nccn1Cc1nc(-c2ccc3c(c2)OCO3)no1 | 621 |
| CCc1noc(NC(C)=O)c1-c1ccc(OC)c(S(=O)(=O)N2CCCC2)c1 | 710 |
| Cc1ccc(-c2cn3c(CC(=O)NCc4ccco4)csc3n2)cc1C | 750 |
| CCCCCNC(=O)C1CC(=O)N(CCc2c[nH]c3ccc(Cl)cc23)C1 (stereo unspecified) | 740 |
| CCCCC(=O)Nc1ccc(SCc2nnc(-c3ccc4c(c3)OCO4)o2)cc1 | 948 |
| O=C(Nc1cnc(-c2ccc(Cl)cc2)nc1)c1cccs1 | 1040 |
| Cc1[nH]nc(-c2c(C)sc(C)c2S(=O)(=O)Nc2cccc(Cl)c2)c1C | 1100 |
| CCc1nnc(C2CN(C)CC23CCN(S(=O)(=O)c2cc(F)ccc2OC)CC3)o1 (stereo unspecified) | 612 |
| COCCOCc1nc(C2CCN(S(=O)(=O)c3c(C)noc3C)CC2)no1 | 793 |
| CCCn1c(C)cnc1C1CCN(S(=O)(=O)c2ccc3c(c2)CCC3)C1 (stereo unspecified) | 564 |
| O=C(CCCCCN1C(=O)c2cccc3cccc(c23)C1=O)NO | 694 |
| CCCCNC(=O)C1(c2ccc(NC(C)=O)cc2)CCC1 | 704 |
| CC(=O)NCCc1c(Cc2ccccc2)[nH]c2ccccc12 | 876 |
| COc1ccc(-c2noc(C3CCCN3C(=O)c3ccco3)n2)cc1 (stereo unspecified) | 809 |

| Compound | RP-LC retention time [s] |
| --- | --- |
| O=C(Nc1ccccc1C(=O)NCCC1=CCCCC1)C1=CSCCO1 | 1090 |
| COc1cccc(S(=O)(=O)N2CCC3(C2)C(=O)Nc2ccc(OC)cc23)c1 (stereo unspecified) | 816 |
| COCCOC(=O)c1c(C)oc2ccc(OC(=O)N(C)C)cc12 | 830 |
| Cc1cccc(S(=O)(=O)N2C[C@H]3CN(S(=O)(=O)c4ccc(C#N)cc4)C[C@@H](C2)O3)c1 | 945 |
| COc1ccc(CNC2=NCCNC23CCN(S(=O)(=O)c2cc(C)ccc2C)CC3)cc1 | 754 |
| CCOC(=O)NCc1nc(COc2ccc(OC)cc2)no1 | 727 |
| Cc1nsc2ncc(C(=O)N3CCOCC3)c(N3CCC(C(=O)Nc4ccc(F)cc4Cl)CC3)c12 | 811 |
| Cn1c(C#N)ccc1-c1ccc2c(c1)C(C)(C)OC(=S)N2 | 989 |
| O=C(Cn1nc2c(SC3CCCCC3)nccn2c1=O)NC1CCCC1 | 939 |
| COc1cc(C(=O)N2CCCC2c2nc(-c3ccccc3Cl)no2)cc(OC)c1OC (stereo unspecified) | 906 |
| CCN(CC)CCNc1ncnc2onc(-c3ccc(F)cc3)c12 | 625 |
| O=C(C1=CN(c2ccc(F)c(F)c2)c2cc(Cl)ccc2S1(=O)=O)N1CCOCC1 | 775 |
| COc1ccc(NC(=O)c2cn3c(n2)CCCC3)cc1Cl | 609 |
| NCCSSCc1ccccc1CSSCCN | 567 |
| COc1cccc(-c2nc(-c3ccc4oc(-c5ccccc5)nc4c3)no2)c1OC | 1410 |
| COc1ccc(-c2noc(-c3cn(C)c4ccc(C)cc4c3=O)n2)cc1OC | 796 |
| Cc1cc(C)n(CC(C)C(=O)Nc2ccc(Br)cc2)n1 (stereo unspecified) | 800 |
| Cc1ccc(C)c(S(=O)(=O)N2CCC(F)(c3nc(CC(C)C)no3)CC2)c1 | 1270 |
| CCn1ccc2ccn(CC(=O)NCc3ccc4c(c3)OCO4)c(=O)c21 | 726 |

| Compound | RP-LC retention time [s] |
| --- | --- |
| O=C(NCc1nnnn1C1CCCCC1)C1CC1 | 647 |
| Cc1ccc(-c2nnc(C)c(NCCN3CCOCC3)n2)cc1 | 547 |
| Cc1ccc(-c2ccc3nn(Cc4nc(-c5ccc(F)c(Br)c5)no4)c(=O)n3n2)cc1 | 1090 |
| Cc1csc(NC(=O)C2CCCN(S(=O)(=O)c3c[nH]c(C(=O)N4CCCC4)c3)C2)n1 (stereo unspecified) | 714 |
| Cc1cc(C)c(S(=O)(=O)N2CCCC2c2nc(-c3ccccc3C)no2)cc1C (stereo unspecified) | 1300 |
| COCCN1C(=O)[C@H]2CN(Cc3ccc(F)c(F)c3)C[C@H]2C1=O | 623 |
| CC(C)n1c(=O)oc2cc(-c3noc(-c4ccccc4F)n3)ccc21 | 1160 |
| COc1ccc(NC(=O)N2CCCC2c2nncn2C2CCCC2)c(OC)c1 (stereo unspecified) | 662 |
| Cc1nccn1-c1cc(C(C)C)c(C#N)c2nc3ccccc3n12 | 622 |
| Cc1nc(-c2csc(S(=O)(=O)N3CCCC(C(=O)Nc4ccc(F)cc4Cl)C3)c2)no1 (stereo unspecified) | 1010 |
| Cc1c([C@@H](C)C2NC[C@@H](C)C[C@H]2O)ccc2c1C[C@@H]1[C@H]2CC=C2C[C@@H](O)CC[C@@]21C (stereo partly specified) | 749 |
| Cc1nccn1CCC(C(N)=O)(c1ccccc1)c1ccccc1 | 688 |
| O=C(NCCC1CCN(C(=O)Nc2cc(F)cc(F)c2)CC1)c1ccco1 | 798 |
| Cc1ccn2c(NC(=O)COc3ccc(Cl)cc3)c(-c3ccc(F)cc3)nc2c1 | 759 |
| Cc1c(-c2noc(-c3ccccc3F)n2)nnn1Cc1cccc(F)c1 | 1050 |
| Cc1cccc(C)c1-n1ccn(Cc2nc(-c3cccc(F)c3)no2)c(=O)c1=O | 901 |
| Cc1noc(C)c1CNC(=O)COc1ccc(F)cc1 | 711 |
| COc1ccc(C2C(=O)N(C3CCCCC3)CC(=O)N2Cc2ccc3c(c2)OCO3)cc1 (stereo unspecified) | 893 |
